The subject of this test is L1210 leukemia ip in BDF1 mice, survival T/C. As to the kind of experiment: NCI In Vivo Anticancer Drug Screen. Data for tumor model L1210 Leukemia (intraperitoneal) in B6D2F1 (BDF1) mice. As to conditions: higher = longer survival. The essentials:
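Mice bearing the transplanted tumor received compound or vehicle. Survival of the treated group was divided by that of the vehicle-treated control group to give the ratio.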

Setting [1] is: endpoint: mean survival time, dose: 100.0 mg/kg/injection, schedule: Q01DX001 (ip), vehicle: saline.
Setting [2] is: endpoint: mean survival time, dose: 200.0 mg/kg/injection, schedule: Q01DX001 (ip), vehicle: saline.
The mark [3] stands for this setting: endpoint: mean survival time, dose: 400.0 mg/kg/injection, schedule: Q01DX001 (ip), vehicle: saline.
Setting [4] is: endpoint: mean survival time, dose: 100.0 mg/kg/injection, schedule: Q01DX009 (ip), vehicle: saline with Tween-80.
Where [5] appears, read: endpoint: mean survival time, dose: 100.0 mg/kg/injection, schedule: Q04DX003 (ip), vehicle: saline with Tween-80.
The mark [6] stands for this setting: endpoint: mean survival time, dose: 200.0 mg/kg/injection, schedule: Q01DX009 (ip), vehicle: saline with Tween-80.
[7] abbreviates: endpoint: mean survival time, dose: 200.0 mg/kg/injection, schedule: Q04DX003 (ip), vehicle: saline with Tween-80.
Setting [8] is: endpoint: mean survival time, dose: 400.0 mg/kg/injection, schedule: Q01DX009 (ip), vehicle: saline with Tween-80.
The mark [9] stands for this setting: endpoint: mean survival time, dose: 400.0 mg/kg/injection, schedule: Q04DX003 (ip), vehicle: saline with Tween-80.

Values joined by “and” are separate entries in the source; they are usually repeats but may differ in a detail not shown here. Equal entries are not always repeated. Toxic doses and inconclusive results are not listed.

On to `COC(COC(N)=O)C1=C(N2CC2)C(=O)C(C)=C(N2CC2)C1=O` (stereo unspecified), for which the T/C runs as follows: (endpoint: mean survival time, dose: 0.03 mg/kg/injection, schedule: Q01DX Z (ip), vehicle: saline) 107 % of control; (endpoint: mean survival time, dose: 0.06 mg/kg/injection, schedule: Q01DX Z (ip), vehicle: saline) 115 % of control; (endpoint: mean survival time, dose: 0.12 mg/kg/injection, schedule: Q01DX009 (ip), vehicle: Klucel (hydroxypropylcellulose) (HPC)) 158 % of control; (endpoint: mean survival time, dose: 0.12 mg/kg/injection, schedule: Q01DX Z (ip), vehicle: saline) 115 % of control; (endpoint: mean survival time, dose: 0.25 mg/kg/injection, schedule: Q01DX009 (ip), vehicle: Klucel (hydroxypropylcellulose) (HPC)) 113 % of control; (endpoint: mean survival time, dose: 0.25 mg/kg/injection, schedule: Q01DX Z (ip), vehicle: saline) 159 % of control. The T/C (endpoint: mean survival time, dose: 0.5 mg/kg/injection, schedule: Q01DX009 (ip), vehicle: saline) was 207 % of control; the T/C (endpoint: mean survival time, dose: 0.5 mg/kg/injection, schedule: Q01DX Z (ip), vehicle: saline) is 157 % of control; the T/C (endpoint: mean survival time, dose: 0.5 mg/kg/injection, schedule: Q04DX003 (ip), vehicle: Klucel (hydroxypropylcellulose) (HPC)) is 194 % of control; the T/C (endpoint: mean survival time, dose: 0.5 mg/kg/injection, schedule: Q04DX003 (ip), vehicle: saline) was 172 % of control; the T/C (endpoint: mean survival time, dose: 0.5 mg/kg/injection, schedule: Q08DX002 (ip), vehicle: saline) was 160 % of control; the T/C (endpoint: mean survival time, dose: 1.0 mg/kg/injection, schedule: Q01DX001 (ip), vehicle: saline with Tween-80) is 166 % of control. Also, the T/C (endpoint: mean survival time, dose: 1.0 mg/kg/injection, schedule: Q01DX001 (ip), vehicle: saline) is 171 % of control; the T/C (endpoint: mean survival time, dose: 1.0 mg/kg/injection, schedule: Q01DX009 (ip), vehicle: saline) was 201 % of control; the T/C (endpoint: mean survival time, dose: 1.0 mg/kg/injection, schedule: Q01DX Z (ip), vehicle: saline) was 90 % of control; the T/C (endpoint: mean survival time, dose: 1.0 mg/kg/injection, schedule: Q04DX003 (ip), vehicle: saline) was 188 % of control; the T/C (endpoint: mean survival time, dose: 1.0 mg/kg/injection, schedule: Q08DX002 (ip), vehicle: saline) is 233 % of control; the T/C (endpoint: mean survival time, dose: 2.0 mg/kg/injection, schedule: Q01DX001 (ip), vehicle: saline with Tween-80) is 288 % of control. Further, the T/C was 360 % of control (endpoint: mean survival time, dose: 2.0 mg/kg/injection, schedule: Q01DX001 (ip), vehicle: saline); 92 % of control (endpoint: mean survival time, dose: 2.0 mg/kg/injection, schedule: Q01DX009 (ip), vehicle: Klucel (hydroxypropylcellulose) (HPC)); 98 % of control (endpoint: mean survival time, dose: 2.0 mg/kg/injection, schedule: Q04DX003 (ip), vehicle: Klucel (hydroxypropylcellulose) (HPC)); 105 % of control (endpoint: mean survival time, dose: 2.0 mg/kg/injection, schedule: Q04DX003 (ip), vehicle: saline); 159 % of control (endpoint: mean survival time, dose: 2.0 mg/kg/injection, schedule: Q08DX002 (ip), vehicle: saline); 90 % of control (endpoint: mean survival time, dose: 4.0 mg/kg/injection, schedule: Q01DX001 (ip), vehicle: saline with Tween-80). For the same molecule, the T/C by setting is: (endpoint: median survival time, dose: 0.5 mg/kg/injection, schedule: Q01DX001 (ip), vehicle: saline) 100 % of control; (endpoint: median survival time, dose: 1.0 mg/kg/injection, schedule: Q01DX001 (ip), vehicle: saline) 109 % of control; (endpoint: median survival time, dose: 2.0 mg/kg/injection, schedule: Q01DX001 (ip), vehicle: saline) 114 % of control.
Regarding `Nc1ncnc2c1ncn2C1C=CC(CO)O1` (stereo unspecified), the T/C is, setting by setting: under setting [1], 102 % of control; under setting [2], 100 % of control; under setting [3], 102 % of control.
As to `CC(Cc1ccccc1)N(C)N` (stereo unspecified), the T/C is 94 % of control (endpoint: mean survival time, dose: 1.56 mg/kg/injection, schedule: Q01DX009 (ip), vehicle: saline); 102 % of control (endpoint: mean survival time, dose: 3.12 mg/kg/injection, schedule: Q01DX009 (ip), vehicle: saline); 91 % of control (endpoint: mean survival time, dose: 6.25 mg/kg/injection, schedule: Q01DX009 (ip), vehicle: saline); 88 % of control (endpoint: mean survival time, dose: 12.5 mg/kg/injection, schedule: Q01DX009 (ip), vehicle: saline); 102 % of control (endpoint: mean survival time, dose: 25.0 mg/kg/injection, schedule: Q01DX009 (ip), vehicle: saline).
Consider `O=C1CCCCC1Oc1ccccc1` (stereo unspecified), for which the T/C runs as follows: under setting [4], 95 % of control; under setting [5], 95 % of control; under setting [6], 101 % of control; under setting [7], 98 % of control; under setting [8], 86 % of control; under setting [9], 93 % of control.
Regarding `NC(N)=N/N=C/c1ccc([N+](=O)[O-])cc1`, the T/C was 95 % of control (endpoint: mean survival time, dose: 15.0 mg/kg/injection, schedule: Q01DX Z (ip), vehicle: saline); 95 % of control (endpoint: mean survival time, dose: 30.0 mg/kg/injection, schedule: Q01DX Z (ip), vehicle: saline); 104 % of control (endpoint: mean survival time, dose: 30.0 mg/kg/injection, schedule: Q01DX Z (oral), vehicle: other); 90 % of control (endpoint: mean survival time, dose: 60.0 mg/kg/injection, schedule: Q01DX Z (ip), vehicle: saline); 100 % of control (endpoint: mean survival time, dose: 60.0 mg/kg/injection, schedule: Q01DX Z (oral), vehicle: other); 88 % of control (endpoint: mean survival time, dose: 120.0 mg/kg/injection, schedule: Q01DX Z (oral), vehicle: other).
On to `Cn1c2ccccc2c(=O)c2ccccc21`, for which the T/C reads like this: under setting [1], 117 % of control; under setting [2], 101 % of control; under setting [3], 101 % of control.
`Cc1ccc(S(=O)(=O)N(CCC(=O)O)Cc2ccccc2)cc1`: the T/C was 121 % of control (endpoint: mean survival time, dose: 100.0 mg/kg/injection, schedule: Q01DX001 (ip), vehicle: carboxymethylcellulose (CMC)); 103 % of control (endpoint: mean survival time, dose: 200.0 mg/kg/injection, schedule: Q01DX001 (ip), vehicle: carboxymethylcellulose (CMC)); 108 % of control (endpoint: mean survival time, dose: 400.0 mg/kg/injection, schedule: Q01DX001 (ip), vehicle: carboxymethylcellulose (CMC)).
Regarding `CCOC(=O)c1c[nH]c2c(OC)cccc2c1=O`, the T/C reads like this: under setting [4], 102 % of control; under setting [5], 98 % of control; under setting [6], 88 % of control; under setting [7], 98 % of control; under setting [8], 97 % of control; under setting [9], 109 % of control.
With `CC1(C)CCCC2(C)C1CC(O)C1(CO1)C2CCC(C)(O)C1CO1` (stereo unspecified), the T/C was 92 % of control (endpoint: mean survival time, dose: 25.0 mg/kg/injection, schedule: Q01DX009 (ip), vehicle: DMSO); 88 % of control (endpoint: mean survival time, dose: 25.0 mg/kg/injection, schedule: Q04DX003 (ip), vehicle: DMSO); 96 % of control (endpoint: mean survival time, dose: 50.0 mg/kg/injection, schedule: Q01DX009 (ip), vehicle: DMSO); 93 % of control (endpoint: mean survival time, dose: 50.0 mg/kg/injection, schedule: Q04DX003 (ip), vehicle: DMSO); 97 % of control and 92 % of control (endpoint: mean survival time, dose: 100.0 mg/kg/injection, schedule: Q04DX003 (ip), vehicle: DMSO).
As to `CN(C)C=Nc1ccc2c3c(cccc13)CC2`, the T/C was 103 % of control (endpoint: mean survival time, dose: 6.25 mg/kg/injection, schedule: Q04DX003 (ip), vehicle: saline with Tween-80); 88 % of control (endpoint: mean survival time, dose: 12.5 mg/kg/injection, schedule: Q04DX003 (ip), vehicle: saline with Tween-80); 98 % of control (endpoint: mean survival time, dose: 25.0 mg/kg/injection, schedule: Q04DX003 (ip), vehicle: saline with Tween-80).
In the case of `O=c1c(Cl)c(C(Cl)(Cl)Cl)[nH]c2c(Cl)cc(Cl)cc12`, the T/C is, setting by setting: (endpoint: mean survival time, dose: 6.25 mg/kg/injection, schedule: Q01DX009 (ip), vehicle: other) 93 % of control; (endpoint: mean survival time, dose: 12.5 mg/kg/injection, schedule: Q01DX009 (ip), vehicle: other) 107 % of control.
As for `O=C1C=CC(=NCC(=O)OCc2ccccc2)O1`, the T/C is, setting by setting: (endpoint: mean survival time, dose: 200.0 mg/kg/injection, schedule: Q04DX003 (ip), vehicle: acetone) 91 % of control; (endpoint: mean survival time, dose: 400.0 mg/kg/injection, schedule: Q04DX003 (ip), vehicle: acetone) 90 % of control.
`COC(=O)CCN(c1ccccc1)c1ccc(C)cc1`: the T/C is, setting by setting: under setting [4], 91 % of control; under setting [6], 92 % of control; under setting [8], 92 % of control.
As for `COc1cc(CC#N)c(OC)cc1CC#N`, the T/C runs as follows: under setting [4], 94 % of control; under setting [5], 89 % of control; under setting [6], 89 % of control; under setting [7], 89 % of control; under setting [8], 99 % of control; under setting [9], 88 % of control.
As to `Cn1c(CO)cc2ccccc21`, the T/C by setting is: under setting [4], 98 % of control; under setting [5], 96 % of control; under setting [6], 98 % of control; under setting [7], 96 % of control; under setting [8], 88 % of control; under setting [9], 98 % of control.

For the origin of these results see PubChem BioAssay AID248 (DTP/NCI, 2004).
